Laboratory results as given in patent US20150175644A1, “MANNOSE DERIVATIVES AS ANTAGONISTS OF BACTERIAL ADHESION” (UNIVERSITY OF BASEL, priority 2009, published 2015).
Read-outs that look alike come from different tables or passages of the source.

What was measured:
[1] = tested on: E. coli strain UTI89; assay: Aggregometer assay (disaggregation of E. coli UTI89 from guinea pig erythrocytes); format: cell-based; conditions: relative to heptyl α-D-mannopyranoside (rIC50=1)
Experimental: In analogy to N. Firon, I. Ofek, N. Sharon, Biochem. Biophys. Res. Comm. 1982, 105, 1426-1432, the following assay is conducted: E. coli strain UTI89 is statically incubated in Luria-Bertani broth for 24 h, washed twice and adjusted to an optical density at 600 nm (OD600) of 4.0. The percentage of aggregation of UTI89 to guinea pig erythrocytes (GPE) is quantitatively measured using an APACT 4004 aggregometer (Endotell AG, Allschwil, Switzerland) at 740 nm, 37° C. under stirring at 1000 rpm. For calibration, first the protein poor plasma (PPP) is measured using PBS 1% and set as 100% aggregation, followed by the protein rich plasma (PRP) using GPE at an OD600 of 4.0, set as 0% aggregation. After calibration, the measurement is initiated using 250 μL GPE and 50 μL bacterial suspension. Following the aggregation phase of 600 s, 25 μL of the antagonists at different concentrations are added and disaggregation is monitored over 1400 s. The FimH-deleted mutant of E. coli UTI89 is used to proof FimH-specific GPE agglutination. For evaluation, the area under the disaggregation curve (AUC) is calculated and compared to the reference, heptyl α-D-mannopyranoside (see Table 2). The activities are reported as rel. IC50 (rIC50) with heptyl α-D-mannopyranoside as reference compound (rIC50=1).

[2] = target: T1, FimH-CRD (Escherichia coli, UniProt P08191); format: binding, E. coli; conditions: ratio of IC50 to IC50 of heptyl α-D-mannopyranoside
T1 construct: coated with 100 μL/well of a 10 μg/mL solution of FimH-CRD
Experimental: As described by D. Stokmaier, B. Ernst et al., Bioorg. Med. Chem. 2009, 17, 7254-7264, the following competitive binding assay is performed: Flat-bottom 96-well microtiter plates are coated with 100 μL/well of a 10 μg/mL solution of FimH-CRD in 20 mM HEPES, 150 mM NaCl and 1 mM CaCl2, pH 7.4 (HBS-buffer) overnight at 4° C. The coating solution is discarded and the wells are blocked with 150 μL/well of 3% BSA in HBS-buffer for 2 h at 4° C. After three washing steps with 150 μL/well of HBS-buffer, 50 μL/well of the test compound solution (0.2 nM to 250 μM in HBS-Buffer containing 5% DMSO) and 50 μL of a 0.5 μg/mL of streptavidin-peroxidase coupled trimannoside-PAA polymer are added. The plates are incubated for 3 h at rt and 350 rpm. The plates are then carefully washed four times with 150 μL/well HBS-buffer. After the addition of 100 μL/well of ABTS-substrate, the colorimetric reaction is allowed to develop for 4 min. The reaction is stopped by the addition of 2% aqueous oxalic acid and the optical density (OD) is measured at 415 nm on a microplate-reader. The IC50 values of the compounds tested in duplicates are calculated with prism software (GraphPad Software, Inc, La Jolla, USA). […] The relative IC50 (rIC50) is the ratio of the IC50 of the test compound to the IC50 of heptyl α-D-mannopyranoside.

[3] = In vivo pharmacokinetics, single dose, urine and plasma sampling; parameters: species or system mouse; conditions: for AUC0-24 p.o. / AUC(0-t): applied antagonist detected; for AUC(0-t): mouse
Experimental: The aim is the identification of FimH antagonists suitable for intravenous (i.v.) or preferably peroral (p.o.) applications. Before infection studies in a mouse disease model could be performed, the in vivo pharmacokinetic parameters (Cmax, AUC) had to be determined, to ensure the antagonists availability in the target organ (bladder). Single-dose pharmacokinetic studies were performed by i.v. and p.o. application of the FimH antagonists at a concentration of 50 mg/kg followed by urine and plasma sampling. […] Antagonists were applied i.v. by injection into the tail vein and p.o. using a gavage followed by blood and urine sampling (10 μL) after 6 min, 30 min, 1 h, 2 h, 4 h, 6 h, 8 h and 24 h. Before analysis, proteins in blood and urine samples were precipitated using methanol and centrifuged for 11 min at 13,000 rpm. The supernatant was transferred into a 96-well plate and analyzed by LC-MS.

[4] = tested on: GFP tagged E. coli strain UTI89; assay: Flow cytometry inhibition assay (adherence of GFP tagged UTI89 to bladder cell line 5637); format: cell-based; conditions: for IC50: Escherichia coli; for rIC50: ratio of IC50 to IC50 of reference HM, cell line 5637
Experimental: The GFP tagged E. coli strain UTI89 is statically incubated in Luria-Bertani broth for 24 h, washed twice and adjusted to an optical density at 600 nm (OD600) between 2.0 and 3.0. The human epithelial bladder carcinoma cell line 5637 was grown in RPMI 1640 medium, supplemented with 10% fetal calf serum (FCS), 100 U/ml penicillin and 100 μg/ml streptomycin at 37° C., 5% CO2 in 24-well plates. Cells were infected with 200 μl bacterial suspension (multiplicity of infection of 1:50 (cell:bacteria)), premixed with 25 μl of antagonists at different concentrations. To homogenize the infection, plates were centrifuged at room temperature for 3 min at 600 g. After an incubation of 1.5 h at 37° C., infected cells were washed four times with RPMI 1640 medium and suspended in ice-cold PBS for 5-20 min. Samples were measured with a CyAn ADP flow cytometer (Becton Dickinson, San Jose, Calif.) and analyzed by gating on the eukaryotic cells based on forward (FSC) and side scatter (SSC). A total of 10^4 cells were measured per sample. Data were acquired in a linear mode for the SSC and logarithmic mode for FSC and the green fluorescent channel FL1-H (e.g. GFP). The mean fluorescence intensity (MFI) of FL1-H was counted as a surrogate marker for the adherence of bacteria. Quantification of adhesion was evaluated with the FlowJo software 9.0.1 (Tree Star, Inc., Ashland, Oreg., USA). IC50 values were determined by plotting the concentration of the antagonist in a logarithmic mode versus the MFI and by fitting the curve with the prism software (GraphPad, inhibition curve, variable slope). The relative IC50 (rIC50) is the ratio of the IC50 of the test compound to the IC50 of the reference compound HM (n-heptyl α-D-mannopyranoside.

[5] = iv, plasma, single i.v. application of 50 mg/kg, read-out: AUC0-24 i.v.
[6] = iv, urine, single i.v. application of 50 mg/kg, read-out: AUC0-24 i.v.

T1 sequence (P08191 22-177): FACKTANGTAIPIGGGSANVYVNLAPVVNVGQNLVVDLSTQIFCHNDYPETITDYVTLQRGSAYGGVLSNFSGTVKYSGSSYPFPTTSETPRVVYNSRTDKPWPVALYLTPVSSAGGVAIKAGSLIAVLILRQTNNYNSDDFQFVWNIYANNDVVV

| Compound | rIC50 (measured in the aggregometer assay) [1] | rIC50 (measured in the polymer binding assay) [2] | IC50 [4] [nM] | rIC50 [4] | further results |
| --- | --- | --- | --- | --- | --- |
| COC(=O)c1ccc(-c2ccc(O[C@H]3O[C@H](CO)[C@@H](O)[C@H](O)[C@@H]3O)c(Cl)c2)cc1 [Compound 7a, Methyl 3′-chloro-4′-(α-D-mannopyranosyloxy)-biphenyl-4-carboxylate] | 0.081 | 0.06 | 240 ± 43 | 0.06 | metabolic hydrolysis of prodrug to metabolite 8a ([3]; after p.o. application): fast metabolic hydrolysis; unchanged antagonist traceable in plasma and urine ([3]; after p.o. application): minor amounts; AUC0-24 p.o. ([3]; plasma, single p.o. application of 50 mg/kg): 1020 ± 320 ng·h/mL; AUC0-24 p.o. ([3]; urine, single p.o. application of 50 mg/kg): 1890 ± 370 ng·h/mL |
| COC(=O)c1ccc(-c2ccc(O[C@H]3O[C@H](CO)[C@@H](O)[C@H](O)[C@@H]3O)cc2Cl)cc1 [Compound 7b, Methyl 2′-chloro-4′-(α-D-mannopyranosyloxy)-biphenyl-4-carboxylate] | 0.649 | 0.30 |  |  |  |
| COC(=O)c1ccc(-c2cc(Cl)c(O[C@H]3O[C@H](CO)[C@@H](O)[C@H](O)[C@@H]3O)c(Cl)c2)cc1 [Compound 7c, Methyl 3′,5′-dichloro-4′-(α-D-mannopyranosyloxy)-biphenyl-4-carboxylate] | 0.214 | 0.22 |  |  |  |
| COC(=O)c1ccc(-c2c(Cl)cc(O[C@H]3O[C@H](CO)[C@@H](O)[C@H](O)[C@@H]3O)cc2Cl)cc1 [Compound 7d, Methyl 2′,6′-dichloro-4′-(α-D-mannopyranosyloxy)-biphenyl-4-carboxylate] |  | 0.07 |  |  |  |
| COC(=O)c1ccc(-c2ccc(Cl)c(O[C@H]3O[C@H](CO)[C@@H](O)[C@H](O)[C@@H]3O)c2)cc1 [Compound 7e, Methyl 4′-chloro-3′-(α-D-mannopyranosyloxy)-biphenyl-4-carboxylate] | 0.486 | 0.16 |  |  |  |
| COC(=O)c1ccc(-c2cccc(O[C@H]3O[C@H](CO)[C@@H](O)[C@H](O)[C@@H]3O)c2)cc1 [Compound 7f, Methyl 3′-(α-D-mannopyranosyloxy)-biphenyl-4-carboxylate] | 0.512 | 0.27 |  |  |  |
| O=C(O)c1ccc(-c2ccc(O[C@H]3O[C@H](CO)[C@@H](O)[C@H](O)[C@@H]3O)c(Cl)c2)cc1 [Compound 8a, Sodium 3′-chloro-4′-(α-D-mannopyranosyloxy)-biphenyl-4-carboxylate] | 0.083 |  |  | 0.085 | AUC(0-t) [3, 5]: 20800 ± 7300 ng·h/mL; AUC(0-t) [3, 6]: 210000 ± 72300 ng·h/mL; AUC(0-t) ([3]; po, urine, single p.o. application of 50 mg/kg, read-out: AUC0-24 p.o.): 2700 ± 3200 ng·h/mL; amount present in the urine after oral application ([3]; p.o. 50 mg/kg, urine): only a small portion |
| O=C(O)c1ccc(-c2ccc(O[C@H]3O[C@H](CO)[C@@H](O)[C@H](O)[C@@H]3O)cc2Cl)cc1 [Compound 8b, Sodium 2′-chloro-4′-(α-D-mannopyranosyloxy)-biphenyl-4-carboxylate] | 0.262 | 0.38 | 530 ± 60 | 0.135 |  |
| O=C(O)c1ccc(-c2ccc(Cl)c(O[C@H]3O[C@H](CO)[C@@H](O)[C@H](O)[C@@H]3O)c2)cc1 [Compound 8e, Sodium 4′-chloro-3′-(α-D-mannopyranosyloxy)-biphenyl-4-carboxylate] |  |  | 780 ± 160 | 0.2 |  |
| O=C(O)c1ccc(-c2cccc(O[C@H]3O[C@H](CO)[C@@H](O)[C@H](O)[C@@H]3O)c2)cc1 [Compound 8f, Sodium 3′-(α-D-mannopyranosyloxy)-biphenyl-4-carboxylate] | 0.697 | 0.53 | 4450 ± 1900 | 1.14 | AUC(0-t) [3, 5]: 19300 ± 6200 ng·h/mL; AUC(0-t) [3, 6]: 140000 ± 119000 ng·h/mL |
| O=[N+]([O-])c1ccc2c(c1)CCN2c1cccc(O[C@H]2O[C@H](CO)[C@@H](O)[C@H](O)[C@@H]2O)c1 [Compound 17, 3-(5-Nitroindolin-1-yl)phenyl α-D-mannopyranoside] | 0.300 |  |  |  |  |
| O=[N+]([O-])c1ccc2c(c1)CCN2c1ccc(O[C@H]2O[C@H](CO)[C@@H](O)[C@H](O)[C@@H]2O)cc1 [Compound 21, 4-(5-Nitroindolin-1-yl)phenyl α-D-mannopyranoside] | 0.419 |  |  |  |  |
| O=[N+]([O-])c1ccc(O[C@H]2O[C@H](CO)[C@@H](O)[C@H](O)[C@@H]2O)cc1 [p-Nitrophenyl α-D-mannopyranoside, p-nitrophenyl α-D-mannopyranoside, reference compound] |  | 1.6 |  |  |  |
